Test [1] has as its system HCV genotype 1b (Con1) replicon in HUH-7 cells. As to the kind of experiment: HCV replicon luciferase reporter assay, genotype 1b. In kind it is cell-based. As to conditions: Hepatitis C virus, Huh-7, 72 h, HCV genotype 1b replicon luciferase, 3 days incubation. The method in brief:
(§1)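 Replicon inhibition for both genotypes was measured as Renilla luciferase signal (EnduRen, 7.5 μM final, 2 h) after 3-day, 37° C exposure of replicon-bearing HUH-7 cells in 4% FCS DMEM, 0.5% DMSO. The 1b construct carries S1179I; the 1a H77 construct carries P1496L and S2204I. Twenty-point, 3-fold dilutions were fitted four-parametrically for EC50, and CC50 was taken from multiplexed Cell Titer-Blue.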
In general terms: Replicon systems follow genome replication, usually without infectious particles.

Test [2] has as its system HCV genotype 1a (H77 strain) replicon in HUH-7 cells. As to the kind of experiment: HCV replicon luciferase reporter assay, genotype 1a. The test is classed as cell-based. As to conditions: Hepatitis C virus, Huh-7, 72 h, HCV genotype 1a replicon luciferase, 3 days incubation. The method in brief: as §1

Like-named read-outs stand apart in the source and are kept apart here.

Consider `C[C@@H]1CC/C=C\[C@@H]2C[C@@]2(C(=O)NS(=O)(=O)C2(C)CC2)NC(=O)[C@@H]2C[C@@H](Oc3nc4c(c5ccccc35)OCCC4)CN2C(=O)[C@@H](NC(=O)OC(C)(C)C)[C@H](C)C1` [Compound 6020, tert-butyl ((2R,6S,7R,9R,13aS,14aR,16aS,Z)-2-((3,4-dihydro-2H-pyrano[3,2-c]isoquinolin-6-yl)oxy)-7,9-dimethyl-14a-(((1-methylcyclopropyl)sulfonyl)carbamoyl)-5,16-dioxo-1,2,3,5,6,7,8,9,10,11,13a,14,14a,15,16,16a-hexadecahydrocyclopropa[e]pyrrolo[1,2-a][1,4]diazacyclopentadecin-6-yl)carbamate], for which the EC50 (as a rule, the concentration giving half of the maximal effect) is under 5.46 nM in test [1] (read-out: LE_1b (EC50, range)) and under 5.46 nM in test [2] (read-out: LE_1a (EC50, range)).
For `C[C@@H]1CC/C=C\[C@@H]2C[C@@]2(C(=O)NS(=O)(=O)C2(C)CC2)NC(=O)[C@@H]2C[C@@H](Oc3nc4c(c5ccccc35)OCCC4)CN2C(=O)[C@@H](NC(=O)OC(C)(C)C(F)(F)F)[C@H](C)C1` [Compound 6022, 1,1,1-trifluoro-2-methylpropan-2-yl((2R,6S,7R,9R,13aS,14aR,16aS,Z)-2-((3,4-dihydro-2H-pyrano[3,2-c]isoquinolin-6-yl)oxy)-7,9-dimethyl-14a-(((1-methylcyclopropyl)sulfonyl)carbamoyl)-5,16-dioxo-1,2,3,5,6,7,8,9,10,11,13a,14,14a,15,16,16a-hexadecahydrocyclopropa[e]pyrrolo[1,2-a][1,4]diazacyclopentadecin-6-yl)carbamate], the concentration for a half-maximal effect (EC50) in test [1] (read-out: LE_1b (EC50, range)) was under 5.46 nM; in test [2] (read-out: LE_1a (EC50, range)) it was under 5.46 nM.
Take `CC[C@@H]1C[C@@H](C)CC/C=C\[C@@H]2C[C@@]2(C(=O)NS(=O)(=O)C2(C)CC2)NC(=O)[C@@H]2C[C@@H](Oc3nc4c(c5ccccc35)OCCC4)CN2C(=O)[C@H]1NC(=O)OC(C)(C)C` [Compound 6023, tert-butyl ((2R,6S,7R,9S,13aS,14aR,16aS,Z)-2-((3,4-dihydro-2H-pyrano[3,2-c]isoquinolin-6-yl)oxy)-7-ethyl-9-methyl-14a-(((1-methylcyclopropyl)sulfonyl)carbamoyl)-5,16-dioxo-1,2,3,5,6,7,8,9,10,11,13a,14,14a,15,16,16a-hexadecahydrocyclopropa[e]pyrrolo[1,2-a][1,4]diazacyclopentadecin-6-yl)carbamate]: the concentration for a half-maximal effect (EC50) lay within 4.82 to 103 nM in test [1] (read-out: LE_1b (EC50, range)) and 4.82 to 103 nM in test [2] (read-out: LE_1a (EC50, range)).
For `CC[C@@H]1C[C@H](C)CC/C=C\[C@@H]2C[C@@]2(C(=O)NS(=O)(=O)C2(C)CC2)NC(=O)[C@@H]2C[C@@H](Oc3nc4c(c5ccccc35)OCCC4)CN2C(=O)[C@H]1NC(=O)OC(C)(C)C` [Compound 6024, tert-butyl ((2R,6S,7R,9R,13aS,14aR,16aS,Z)-2-((3,4-dihydro-2H-pyrano[3,2-c]isoquinolin-6-yl)oxy)-7-ethyl-9-methyl-14a-(((1-methylcyclopropyl)sulfonyl)carbamoyl)-5,16-dioxo-1,2,3,5,6,7,8,9,10,11,13a,14,14a,15,16,16a-hexadecahydrocyclopropa[e]pyrrolo[1,2-a][1,4]diazacyclopentadecin-6-yl)carbamate], the concentration giving a half-maximal response (EC50) in test [1] (read-out: LE_1b (EC50, range)) was under 5.46 nM; in test [2] (read-out: LE_1a (EC50, range)) it was under 5.46 nM.
Turning to `C[C@@H]1CC/C=C\[C@@H]2C[C@@]2(C(=O)NS(=O)(=O)C2(CF)CC2)NC(=O)[C@@H]2C[C@@H](Oc3nc4c(c5ccccc35)OCCC4)CN2C(=O)[C@@H](NC(=O)OC(C)(C)C)[C@H](C)C1` [Compound 6026, tert-butyl ((2R,6S,7R,9R,13aS,14aR,16aS,Z)-2-((3,4-dihydro-2H-pyrano[3,2-c]isoquinolin-6-yl)oxy)-14a-(((1-(fluoromethyl)cyclopropyl)sulfonyl)carbamoyl)-7,9-dimethyl-5,16-dioxo-1,2,3,5,6,7,8,9,10,11,13a,14,14a,15,16,16a-hexadecahydrocyclopropa[e]pyrrolo[1,2-a][1,4]diazacyclopentadecin-6-yl)carbamate], the EC50 is 0.7 nM in test [1] (read-out: LE_1b (EC50)); under 5.46 nM in test [1] (read-out: LE_1b (EC50, range)); 1.13 nM in test [2] (read-out: LE_1a (EC50)); under 5.46 nM in test [2] (read-out: LE_1a (EC50, range)).

(Values after patent US9499550B2 (BRISTOL-MYERS SQUIBB COMPANY, priority 2012, dated 2016).)
